In test [1] the target is T1, Type-2 angiotensin II receptor (Homo sapiens, UniProt P50052). Also: in other assays of this panel Not Active means under 50% inhibition at 10 µM.
T1 sequence (P50052 whole entry): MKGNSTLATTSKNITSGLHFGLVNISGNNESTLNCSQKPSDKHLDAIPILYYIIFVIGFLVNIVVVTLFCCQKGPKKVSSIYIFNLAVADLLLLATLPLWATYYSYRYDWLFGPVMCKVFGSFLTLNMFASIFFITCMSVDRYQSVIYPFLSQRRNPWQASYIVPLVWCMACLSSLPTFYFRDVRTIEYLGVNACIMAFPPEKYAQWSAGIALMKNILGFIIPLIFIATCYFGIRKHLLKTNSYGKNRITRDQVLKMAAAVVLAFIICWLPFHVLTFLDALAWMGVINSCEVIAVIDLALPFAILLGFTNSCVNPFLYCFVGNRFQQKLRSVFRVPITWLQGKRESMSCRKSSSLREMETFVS
It is filed as cell-based. The following applies: cho-k1.

Test [2] can be described thus: DRUGMATRIX: ATPase, Na+/K+ enzyme inhibition (substrate: ATP). The class given is tissue-based, Sus scrofa, Heart. The conditions noted are these: Not Active = under 50% inhibition at 10 µM.
The nature of test [3]: DRUGMATRIX: Sigma2 radioligand binding (ligand: [3H] Ifenprodil). The following applies: Not Active = under 50% inhibition at 10 µM. It is filed as cell membranes, Rattus norvegicus, Wistar, Brain, Membrane.
Another test concerns the target Vasopressin V1a receptor (Homo sapiens, UniProt P37288). The class given is cell membranes, Membrane. The conditions noted are these: hek293. Also: in other assays of this panel Not Active means under 50% inhibition at 10 µM.
Test [4] addresses Kappa-type opioid receptor (Homo sapiens, UniProt P41145). In words: DRUGMATRIX: Opiate kappa (OP2, KOP) radioligand binding (ligand: [3H] Diprenorphine). The class given is cell membranes, HEK293, Membrane. The following applies: hek293; Not Active = under 50% inhibition at 10 µM.
The target of test [5] is T2, Receptor-type tyrosine-protein phosphatase C (Homo sapiens, UniProt P08575).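 Also: inhibition of CD45 enzyme activity measured using DiFMUP as substrate; in other assays of this panel Not Active means under 50% inhibition at 10 µM.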
T2 sequence (P08575 whole entry): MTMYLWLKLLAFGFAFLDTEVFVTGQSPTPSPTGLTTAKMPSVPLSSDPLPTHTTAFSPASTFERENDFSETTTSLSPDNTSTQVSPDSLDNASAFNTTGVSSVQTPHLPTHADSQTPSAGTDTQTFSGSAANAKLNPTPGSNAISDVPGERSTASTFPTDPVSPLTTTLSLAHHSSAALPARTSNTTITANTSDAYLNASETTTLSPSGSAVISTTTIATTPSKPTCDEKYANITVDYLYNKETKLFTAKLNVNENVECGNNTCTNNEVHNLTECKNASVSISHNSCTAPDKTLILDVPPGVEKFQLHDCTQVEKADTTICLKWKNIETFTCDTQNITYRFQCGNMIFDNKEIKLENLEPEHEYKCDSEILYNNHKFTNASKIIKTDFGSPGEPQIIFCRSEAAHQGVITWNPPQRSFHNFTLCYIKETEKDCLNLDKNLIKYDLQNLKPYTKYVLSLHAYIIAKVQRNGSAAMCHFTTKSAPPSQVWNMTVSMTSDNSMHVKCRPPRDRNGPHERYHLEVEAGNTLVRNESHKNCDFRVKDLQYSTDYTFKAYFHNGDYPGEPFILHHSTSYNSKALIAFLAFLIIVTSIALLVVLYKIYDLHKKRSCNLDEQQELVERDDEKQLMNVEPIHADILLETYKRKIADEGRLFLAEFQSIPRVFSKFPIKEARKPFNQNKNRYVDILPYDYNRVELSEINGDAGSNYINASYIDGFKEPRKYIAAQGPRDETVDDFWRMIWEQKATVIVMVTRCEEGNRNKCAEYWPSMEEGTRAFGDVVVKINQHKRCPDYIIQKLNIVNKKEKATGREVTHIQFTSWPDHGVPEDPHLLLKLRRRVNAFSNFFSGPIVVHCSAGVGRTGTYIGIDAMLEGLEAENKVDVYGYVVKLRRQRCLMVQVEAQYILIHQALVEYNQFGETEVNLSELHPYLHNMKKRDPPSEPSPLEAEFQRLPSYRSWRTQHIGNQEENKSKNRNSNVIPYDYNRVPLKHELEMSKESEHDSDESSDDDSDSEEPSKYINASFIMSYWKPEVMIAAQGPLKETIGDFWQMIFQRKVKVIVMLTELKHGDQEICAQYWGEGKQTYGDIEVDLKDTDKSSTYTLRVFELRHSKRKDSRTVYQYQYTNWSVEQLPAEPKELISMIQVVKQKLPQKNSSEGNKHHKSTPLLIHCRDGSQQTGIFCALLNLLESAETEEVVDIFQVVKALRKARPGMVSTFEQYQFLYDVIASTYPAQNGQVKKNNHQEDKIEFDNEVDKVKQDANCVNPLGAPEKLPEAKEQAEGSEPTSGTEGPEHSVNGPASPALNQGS
Details: species or system Escherichia coli.

In a further test the target is T3, Adenosine receptor A3 (Homo sapiens, UniProt P0DMS8).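 Also: radioligand binding assay with AB-MECA serving as the labeled ligand; in other assays of this panel Not Active means under 50% inhibition at 10 µM.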
T3 sequence (P0DMS8 whole entry): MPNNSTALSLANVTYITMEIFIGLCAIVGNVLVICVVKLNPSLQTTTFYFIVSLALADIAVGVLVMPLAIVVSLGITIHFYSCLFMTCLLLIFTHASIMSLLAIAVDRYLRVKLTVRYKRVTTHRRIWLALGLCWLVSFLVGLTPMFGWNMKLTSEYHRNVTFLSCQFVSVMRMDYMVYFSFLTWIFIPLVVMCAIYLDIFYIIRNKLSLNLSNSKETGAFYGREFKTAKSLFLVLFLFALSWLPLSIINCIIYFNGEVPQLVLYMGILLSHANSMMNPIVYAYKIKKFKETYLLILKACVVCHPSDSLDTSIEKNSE
The class given is cell membranes, CHO-K1, Membrane.

These results are taken from ChEMBL document CHEMBL1909046, “DrugMatrix in vitro pharmacology data”.

By IC50 is commonly meant the midpoint of a concentration-inhibition curve. The Ki is a dissociation constant, usually derived from enzyme kinetics or from competition with a known ligand.

Sequence of Kappa-type opioid receptor (P41145 whole entry): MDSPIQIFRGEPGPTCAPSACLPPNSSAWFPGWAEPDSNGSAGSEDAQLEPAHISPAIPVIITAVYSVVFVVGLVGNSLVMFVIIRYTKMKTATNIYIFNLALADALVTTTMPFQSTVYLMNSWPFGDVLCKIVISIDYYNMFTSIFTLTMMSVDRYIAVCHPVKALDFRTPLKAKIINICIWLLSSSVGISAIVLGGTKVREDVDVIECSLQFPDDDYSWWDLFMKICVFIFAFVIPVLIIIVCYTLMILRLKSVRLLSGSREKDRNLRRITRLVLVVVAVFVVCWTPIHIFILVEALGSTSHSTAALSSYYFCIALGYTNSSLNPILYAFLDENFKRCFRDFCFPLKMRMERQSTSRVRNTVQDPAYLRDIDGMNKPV
Sequence of Vasopressin V1a receptor (P37288 whole entry): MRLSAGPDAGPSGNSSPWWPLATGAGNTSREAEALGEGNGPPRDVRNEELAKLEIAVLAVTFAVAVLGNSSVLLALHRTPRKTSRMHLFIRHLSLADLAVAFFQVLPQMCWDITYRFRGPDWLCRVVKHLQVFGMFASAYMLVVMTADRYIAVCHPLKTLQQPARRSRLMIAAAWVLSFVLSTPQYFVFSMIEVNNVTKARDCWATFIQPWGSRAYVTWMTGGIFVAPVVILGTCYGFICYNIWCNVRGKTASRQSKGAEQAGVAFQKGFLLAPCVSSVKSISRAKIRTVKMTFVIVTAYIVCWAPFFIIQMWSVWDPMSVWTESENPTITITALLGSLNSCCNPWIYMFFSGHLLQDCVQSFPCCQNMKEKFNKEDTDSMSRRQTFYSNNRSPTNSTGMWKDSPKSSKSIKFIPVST

With `C[N+](C)(C)CCOC(N)=O.[Cl-]` [CARBACHOL], the IC50 result (in test [1]; in test [2]; in test [3]; at Vasopressin V1a receptor; in test [4]; in test [5]) was “Not Active” each time. Moreover, at Adenosine receptor A3 (cho-k1), the IC50 entry is on record as “Not Active”. Also, the Ki entry in test [2] and in test [3] was “Not Active” throughout.

For `CCCCCCNC(=O)n1cc(F)c(=O)[nH]c1=O` [CARMOFUR], the IC50 result (in test [1]; in test [2]; in test [3]; against Vasopressin V1a receptor; in test [4]; in test [5]) was “Not Active” each time. For the same compound, on Adenosine receptor A3 (cho-k1), the IC50 result is reported as “Not Active”. In addition, the inhibitory constant (Ki) result in test [2] and in test [3] was “Not Active” each time.

Take `COc1ccccc1OCCNCC(O)COc1cccc2[nH]c3ccccc3c12` (stereo unspecified) [CARVEDILOL]: the IC50 result (in test [1]; in test [2]; in test [3]; against Vasopressin V1a receptor; in test [4]; in test [5]) was “Not Active” throughout. On Adenosine receptor A3 (cho-k1), the IC50 result is on record as “Not Active”. The Ki entry in test [2] and in test [3] was “Not Active” each time.

As for `Cl.NC[C@H]1CC[C@H](C(=O)Oc2ccc(CCC(=O)O)cc2)CC1` [CETRAXATE HYDROCHLORIDE], the IC50 entry (in test [1]; in test [2]; in test [3]; at Vasopressin V1a receptor; in test [4]; in test [5]) was “Not Active” throughout. Besides, the IC50 result at Adenosine receptor A3 (cho-k1) is reported as “Not Active”. The Ki entry in test [2] and in test [3] was “Not Active” in each case.

On to `CC1(COc2ccc(CC3SC(=O)NC3=O)cc2)CCCCC1` (stereo unspecified) [CIGLITAZONE], for which the concentration for half-maximal inhibition (IC50) entry (in test [1]; in test [2]; in test [3]; at Vasopressin V1a receptor; in test [4]; in test [5]) was “Not Active” throughout. In addition, the 50% inhibitory concentration (IC50) on Adenosine receptor A3 (read-out: IC50) was 3050 nM. For the same compound, the values for the Ki result (in test [2]; in test [3]; on Adenosine receptor A3 (read-out: Ki)) were “Not Active”, “Not Active” and 1720 nM, respectively.

As to `CC(C)Cc1ccc([C@H](C)C(=O)O)cc1` [DEXIBUPROFEN], the concentration for half-maximal inhibition (IC50) entry (in test [1]; in test [2]; in test [3]; on Vasopressin V1a receptor; in test [4]; in test [5]) was “Not Active” in each case. In addition, on Adenosine receptor A3 (cho-k1), the IC50 entry is given as “Not Active”. The Ki result in test [2] and in test [3] was “Not Active” in each case.

As to `O=c1[nH]cnc2c1ncn2[C@H]1CC[C@@H](CO)O1` [DIDANOSINE], the IC50 entry (in test [1]; in test [2]; in test [3]; against Vasopressin V1a receptor; in test [4]; in test [5]) was “Not Active” throughout. Moreover, the half-maximal inhibitory concentration (IC50) entry at Adenosine receptor A3 (cho-k1) is given as “Not Active”. The Ki entry in test [2] and in test [3] was “Not Active” throughout.

For `CCN1CCN(c2cc3c(cc2F)c(=O)c(C(=O)O)cn3C2CC2)CC1` [ENROFLOXACIN], the IC50 entry (in test [1]; in test [2]; in test [3]; at Vasopressin V1a receptor; in test [4]; in test [5]) was “Not Active” in each case. Moreover, the IC50 result against Adenosine receptor A3 (cho-k1) is on record as “Not Active”. Also, the Ki result in test [2] and in test [3] was “Not Active” in each case.

As for `CNC[C@H](O)c1ccc(O)c(O)c1` [EPINEPHRINE], the IC50 entry (in test [1]; in test [2]; in test [3]; at Vasopressin V1a receptor; in test [4]; in test [5]) was “Not Active” each time. Further, on Adenosine receptor A3 (cho-k1), the IC50 result is “Not Active”. Further, the Ki result in test [2] and in test [3] was “Not Active” each time.

With `CC[C@H]1OC(=O)[C@H](C)[C@@H](O[C@H]2C[C@@](C)(OC)[C@@H](O)[C@H](C)O2)[C@H](C)[C@@H](O[C@@H]2O[C@H](C)C[C@H](N(C)C)[C@H]2O)[C@](C)(O)C[C@@H](C)C(=O)[C@H](C)[C@@H](O)[C@]1(C)O` [ERYTHROMYCIN], the IC50 result (in test [1]; in test [2]; in test [3]; on Vasopressin V1a receptor; in test [4]; in test [5]) was “Not Active” each time. Besides, the IC50 result against Adenosine receptor A3 (cho-k1) was “Not Active”. Besides, the Ki entry in test [2] and in test [3] was “Not Active” each time.

On to `CC12CCC(CC1)C(C)(C)O2` [EUCALYPTOL], for which the IC50 result (in test [1]; in test [2]; in test [3]; on Vasopressin V1a receptor; in test [4]; in test [5]) was “Not Active” each time. Further, the IC50 result on Adenosine receptor A3 (cho-k1) was “Not Active”. The inhibitory constant (Ki) entry in test [2] and in test [3] was “Not Active” each time.

For `NC(N)=Nc1nc(CSCCC(N)=NS(N)(=O)=O)cs1` [FAMOTIDINE], the IC50 entry (in test [1]; in test [2]; in test [3]; at Vasopressin V1a receptor; in test [4]; in test [5]) was “Not Active” each time. Further, the IC50 result on Adenosine receptor A3 (cho-k1) was “Not Active”. In addition, the Ki entry in test [2] and in test [3] was “Not Active” each time.

Consider `COC(=O)Nc1nc2ccc(Sc3ccccc3)cc2[nH]1` [FENBENDAZOLE], for which the IC50 result (in test [1]; in test [2]; in test [3]; on Vasopressin V1a receptor; in test [4]; in test [5]) was “Not Active” each time. Besides, on Adenosine receptor A3 (cho-k1), the IC50 entry is “Not Active”. The Ki entry in test [2] and in test [3] was “Not Active” each time.

In the case of `COc1cc(/C=C/C(=O)O)ccc1O` [FERULATE], the IC50 result (in test [1]; in test [2]; in test [3]; at Vasopressin V1a receptor; in test [4]; in test [5]) was “Not Active” in each case. Moreover, the IC50 entry on Adenosine receptor A3 (cho-k1) is reported as “Not Active”. Further, the inhibition constant Ki entry in test [2] and in test [3] was “Not Active” each time.

Take `Nc1nc(F)nc2c1ncn2[C@@H]1O[C@H](CO)[C@@H](O)[C@@H]1O` [FLUDARABINE]: the IC50 entry (in test [1]; in test [2]; in test [3]; against Vasopressin V1a receptor; in test [4]; in test [5]) was “Not Active” each time. In addition, on Adenosine receptor A3 (cho-k1), the IC50 entry is given as “Not Active”. For the same compound, the Ki entry in test [2] and in test [3] was “Not Active” each time.
